Series [1] can be described thus: Pharmacokinetic biodistribution of 3H-EC1669 and 3H-methotrexate. The class given is in vivo, Balb/c mice. The method, then: METHOD. Pharmacokinetic biodistribution. Studies in this section included a minimum of 3 test animals (mice) per time point. The pharmacokinetic biodistribution of test compound, such as ^3H-EC1669 (label on the drug), compared to positive control, such as ^3H-methotrexate (^3H-MTX), is observed in female Balb/c mice on folate-deficient diet. Compounds are administered as a single subcutaneous (SC) injection at 500 nmol/kg. Whole blood (>300 μL) along with ˜100 mg each of various tissues of interests are collected at various time points (such as 10 min, 30 min, 1 h, 2 h, 4 h, 8 h, 12 h, 24 h, and 72 h). The blood samples are placed in BD microtainer tubes (heparin) and centrifuged (4,000 g×3 min, 4° C.) to separate plasma (>100 μL). The remaining red blood cell (RBC) mass is washed 2× with phosphate buffered saline (PBS, pH 7.4) to obtain RBCs. The collected tissues are weighed and processed to determine ^3H-EC1669 and ^3H-MTX distribution: plasma, RBC, heart, lung, liver (the smallest lobe), spleen, kidney (1), intestine (above cecum), fecal material (from colon), muscle, and brain.

Series [2] can be described thus: Renal/hepatic secretion study. The class given is in vivo, mice. The conditions noted are these: 24 h post-dose, s.c. The method, then: In a subsequent renal/hepatic secretion study, mice are housed in metabolic cages with a 6-h fast before subcutaneous administration of ^3H-EC1669 or ^3H-MTX. At 24 h post-dose, ˜14% more radioactivity is found in the pooled urine of ^3H-EC1669 dosed animals than in ^3H-MTX dosed animals. In contrast, twice as much radioactivity was found in the pooled feces of ^3H-MTX dosed animals than in EC1669 dosed animals. […] MTX reportedly causes hepatotoxicity as a major side effect, especially after long-term use. Without being bound by theory, it is believed herein that the preferential renal clearance of the compounds described herein will lead to fewer side effects such as hepatotoxicity.

Series [3] relates to KB-CR2000 (cisplatin resistant) tumors. The series can be described thus: Cisplatin-resistant KB-CR2000 tumor model. The class given is in vivo, mice. The conditions noted are these: cisplatin 3 mg/kg twice per week, 2 weeks.
The nature of series [4]: Cytotoxicity of unconjugated tubulysins to cells in culture. To be noted: cells in culture (cell line not given); read-out: typical IC50, cytotoxic to cells in culture. The class given is cell-based.
For another series, the system named is KB tumors. In words: Inhibition of tumor growth, s.c. KB tumors in nu/nu mice. Type of series: in vivo. More on the design: key to In vivo activity (e): CR = complete response, where tumor volume, as defined herein, during the observation period was zero for all test animals in the group. On the procedure: METHOD. Inhibition of Tumor Growth in Mice. […] For tumor cell inoculation, 1×10^6 M109 cells (a syngeneic lung carcinoma) in Balb/c strain, or 1×10^6 KB cells in nu/nu strain, in 100 μL are injected in the subcutis of the dorsal medial area (right axilla).
METHOD. Toxicity as Measured by Weight Loss. The percentage weight change of the test animals is determined on selected days post-tumor inoculation (PTI), and during dosing. The results are graphed.

Series [5] addresses T1, folate receptors (FRs) on KB cells (Homo sapiens, UniProt P15328).
T1 construct: FR-positive KB cells are heavily seeded into 24-well cell culture plates; endogenous in cells; host or cells: KB cells
The series can be described thus: Relative affinity assay (3H-folic acid competition) on KB cells. Type of series: binding. To be noted: folic acid = 1; in 10% serum/FDRPMI. The method, then: METHOD. Relative Affinity Assay. The affinity for folate receptors (FRs) relative to folate is determined according to a previously described method (Westerhof, G. R., J. H. Schornagel, et al. (1995) Mol. Pharm. 48: 459-471) with slight modification. Briefly, FR-positive KB cells are heavily seeded into 24-well cell culture plates and allowed to adhere to the plastic for 18 h. Spent incubation media is replaced in designated wells with folate-free RPMI (FFRPMI) supplemented with 100 nM ^3H-folic acid in the absence and presence of increasing concentrations of test article or folic acid. Cells are incubated for 60 min at 37° C. and then rinsed 3 times with PBS, pH 7.4. Five hundred microliters of 1% SDS in PBS, pH 7.4, is added per well. Cell lysates are then collected and added to individual vials containing 5 mL of scintillation cocktail, and then counted for radioactivity. Negative control tubes contain only the ^3H-folic acid in FFRPMI (no competitor). Positive control tubes contain a final concentration of 1 mM folic acid, and CPMs measured in these samples (representing non-specific binding of label) are subtracted from all samples.

The subject of the next series is KB cells (FR+). The class given is cell-based, Human. On the procedure: METHOD. Inhibition of Cellular DNA Synthesis. The compounds described herein are evaluated using an in vitro cytotoxicity assay that predicts the ability of the drug to inhibit the growth of folate receptor-positive cells, such as KB cells, RAW264.7 macrophages, and the like. It is to be understood that the choice of cell type can made on the basis of the susceptibility of those selected cells to the drug that forms the conjugate. The test compounds are comprised of folate linked to a respective chemotherapeutic drug, as prepared according to the processes described herein. The test cells are exposed to varying concentrations of folate-drug conjugate, and also in the absence or presence of at least a 100-fold excess of folic acid to assess activity as being specific to folate receptor mediation.
EXAMPLE. Conjugates of cytotoxic drugs described herein are active against KB cells. The activity is mediated by the folate receptor as indicated by competition experiments using co-administered folic acid. KB cells are exposed for up to 7 h at 37° C. to the indicated concentrations of folate-drug conjugate in the absence or presence of at least a 100-fold excess of folic acid. The cells are then rinsed once with fresh culture medium and incubated in fresh culture medium for 72 hours at 37° C. Cell viability was assessed using a ^3H-thymidine incorporation assay.
METHOD. In vitro activity against various cancer cell lines. IC50 values are generated for various cell lines. Cells are heavily seeded in 24-well Falcon plates and allowed to form nearly confluent monolayers overnight. Thirty minutes prior to the addition of the test compound, spent medium is aspirated from all wells and replaced with fresh folate-deficient RPMI medium (FFRPMI). A subset of wells are designated to receive media containing 100 μM folic acid. The cells in the designated wells are used to determine the targeting specificity. Without being bound by theory it is believed herein that the cytotoxic activity produced by test compounds in the presence of excess folic acid, i.e. where there is competition for FR binding, corresponds to the portion of the total activity that is unrelated to FR-specific delivery. Following one rinse with 1 mL of fresh FFRPMI containing 10% heat-inactivated fetal calf serum, each well receives 1 mL of medium containing increasing concentrations of test compound (4 wells per sample) in the presence or absence of 100 μM free folic acid as indicated. Treated cells are pulsed for 2 h at 37° C., rinsed 4 times with 0.5 mL of media, and then chased in 1 mL of fresh medium up to 70 h. Spent medium is aspirated from all wells and replaced with fresh medium containing 5 μCi/mL ^3H-thymidine. Following a further 2 h 37° C. incubation, cells are washed 3 times with 0.5 mL of PBS and then treated with 0.5 mL of ice-cold 5% trichloroacetic acid per well. After 15 min, the trichloroacetic acid is aspirated and the cell material solubilized by the addition of 0.5 mL of 0.25 N sodium hydroxide for 15 min. A 450 μL aliquot of each solubilized sample is transferred to a scintillation vial containing 3 mL of Ecolume scintillation cocktail and then counted in a liquid scintillation counter. Final results are expressed as the percentage of ^3H-thymidine incorporation relative to untreated controls.

Setting [6] is: 10 min post-dose, 500 nmol/kg s.c.
[7] abbreviates: 1.0 μmol/kg (only 2 doses due to toxicity), TIW, 2 weeks.

Where two headings read alike, the source gives them in different places.

T1 sequence (P15328 25-234): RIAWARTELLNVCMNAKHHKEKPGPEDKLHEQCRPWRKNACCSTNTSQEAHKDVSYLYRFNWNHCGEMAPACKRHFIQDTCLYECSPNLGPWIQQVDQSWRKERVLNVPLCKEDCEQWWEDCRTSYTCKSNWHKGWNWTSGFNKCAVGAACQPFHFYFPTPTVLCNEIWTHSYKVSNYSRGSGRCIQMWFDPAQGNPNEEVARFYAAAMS

`CN(Cc1cnc2nc(N)nc(N)c2n1)c1ccc(C(=O)N[C@@H](CCC(=O)O)C(=O)O)cc1` [^3H-MTX, ^3H-methotrexate]: in series [1] (setting [6]), the “captured by the liver” value amounted to 31 % ID/g and the “found in the plasma” value is listed as 5.2 % ID/g. Moreover, in series [1] (entire sampling period), the “retention in RBCs, spleen, liver, intestine, and feces” value is given as “consistently higher than that of ^3H-EC1669”. In series [2], the “radioactivity in pooled feces vs EC1669 dosed animals” value is recorded as “twice as much”.

Regarding `N.N.[Cl][Pt][Cl]` [cisplatin, reference compound], the “partial response (PR)” value in series [3] is “did not produce even a single partial response”.

Take `N=c1[nH]c(N)nc2ncc(CNc3ccc(C(=O)N[C@@H](CCC(=O)NNC(=O)OCCSSC[C@@H](NC(=O)[C@H](CCC(=O)NC[C@H](O)[C@@H](O)[C@H](O)[C@H](O)CO)NC(=O)[C@@H](CCC(=O)O)NC(=O)[C@H](CCC(=O)NC[C@H](O)[C@@H](O)[C@H](O)[C@H](O)CO)NC(=O)[C@@H](CCC(=O)O)NC(=O)[C@H](CCC(=O)NC[C@H](O)[C@@H](O)[C@H](O)[C@H](O)CO)NC(=O)CC[C@H](NC(=O)c4ccc(NCc5cnc6nc(N)[nH]c(=O)c6n5)cc4)C(=O)O)C(=O)O)C(=O)O)cc3)nc12` [^3H-EC1669]: in series [1] (female, Balb/c, mouse, plasma, sc, total radioactivity, 10 min post-dose, 500 nmol/kg s.c., read-out: found in the plasma), the tissue uptake at 10 min worked out at 12 %ID/g. For the same compound, in series [2], the “more radioactivity in pooled urine than in 3H-MTX dosed animals” value is listed as ~14%.

Regarding `CCCC(=O)OCN(C(=O)[C@@H](NC(=O)[C@H]1CCCCN1C)C(C)CC)[C@H](C[C@@H](OC(C)=O)c1nc(C(=O)N[C@@H](Cc2ccc(O)cc2)C[C@H](C)C(=O)NN)cs1)C(C)C` (stereo partly drawn) [TubB-H, reference compound], the IC50 in series [4] was ~1 nM. In the series with KB tumors (setting [7]), the CR is 0%, the Cures came out at 0%, the PR was found to be 0% and the “Toxicity: Avg. Weight Loss” value is reported as >15%. For the same compound, the “Toxicity: Deaths” value in the series with KB tumors (setting [7]) is on record as 20%.

`CCCC(=O)OCN(C(=O)[C@@H](NC(=O)[C@H]1CCCCN1C)C(C)CC)[C@H](C[C@@H](OC(C)=O)c1nc(C(=O)N[C@@H](Cc2ccc(O)cc2)C[C@H](C)C(=O)NNC(=O)OCCSSC[C@@H](NC(=O)[C@H](CC(=O)O)NC(=O)[C@H](CC(=O)O)NC(=O)[C@H](CCCNC(=N)N)NC(=O)[C@H](CC(=O)O)NC(=O)CC[C@H](NC(=O)c2ccc(NCc3cnc4nc(N)[nH]c(=O)c4n3)cc2)C(=O)O)C(=O)O)cs1)C(C)C` (stereo partly drawn) [EC1548]: the “Relative Affinity (a) compared to folic acid” value in series [5] is listed as 0.23. Further, the “In vitro specificity (fold) (d)” value in the series with KB cells (FR+) (IC50 competed group vs non-competed group) was 78 fold. The IC50 with KB cells (FR+) (IC50 for test compound when competed with excess folic acid, read-out: 50% competition (nM) (c)) came to 350 nM; with KB cells (FR+) (as determined by thymidine incorporation, read-out: In vitro IC50 (nM) (b)), 4.4 nM. Further, in the series with KB tumors (subcutaneous KB tumor in nu/nu mice), the “In vivo activity (e)” value is listed as “CR”.
